Results published in ChEMBL document CHEMBL5260810, “Inhibition of bromodomain-containing protein 9 for the prevention of epigenetically-defined drug resistance” (Bioorg Med Chem Lett, 2017).

Columns and labels:
[1] = Cytotoxicity against human KMS-34 cells measured after 8 days; format: functional, cell-based; conditions: KMS-34, 192 h
KMS-11 = experiment: Cytotoxicity against human KMS-11 cells measured after 8 days; format: functional, cell-based; conditions: KMS-11, 192 h
NCI-H1155 = experiment: Cytotoxicity against human NCI-H1155 cells measured after 8 days; format: functional, cell-based; conditions: NCI-H1155, 192 h
[2] = Cytotoxicity against mouse LL2 cells measured after 8 days; format: functional, cell-based; conditions: Lewis lung carcinoma, 192 h
[3] = Cytotoxicity against human NCI-H2810 cells measured after 8 days; format: functional, cell-based; conditions: NCI-H2810, 192 h
NCI-H520 = experiment: Cytotoxicity against human NCI-H520 cells measured after 8 days; format: functional, cell-based; conditions: NCI-H520, 192 h
CHP-212 = experiment: Cytotoxicity against human CHP-212 cells measured after 8 days; format: functional, cell-based; conditions: CHP-212, 192 h
[4] = Cytotoxicity against human NCE-G 59 cells measured after 8 days; format: functional, cell-based; conditions: NCE-G 59, 192 h
[5] = Cytotoxicity against human GOS-3 cells measured after 8 days; format: functional, cell-based; conditions: GOS-3, 192 h
[6] = Cytotoxicity against human U-87 MG cells measured after 8 days; format: functional, cell-based, U-87MG ATCC; conditions: 192 h
HCC1187 = experiment: Cytotoxicity against human HCC1187 cells measured after 8 days; format: functional, cell-based; conditions: HCC1187, 192 h
OVCAR-8 = experiment: Cytotoxicity against human OVCAR-8 cells measured after 8 days; format: functional, cell-based; conditions: OVCAR-8, 192 h
SUM149PT = experiment: Cytotoxicity against human SUM149PT cells measured after 8 days; format: functional, cell-based; conditions: 192 h
TYK-nu = experiment: Cytotoxicity against human TYK-nu cells measured after 8 days; format: functional, cell-based; conditions: 192 h
[7] = Cytotoxicity against human KPR3070 cells measured after 8 days; format: functional, cell-based; conditions: KPR3070, 192 h
MIA PaCa-2 = experiment: Cytotoxicity against human MIA Paca-2 cells measured after 8 days; format: functional, cell-based; conditions: MIA PaCa-2, 192 h
[8] = Cytotoxicity against human Panc 04.03 cells measured after 8 days; format: functional, cell-based; conditions: Panc 04.03, 192 h
CaR-1 = experiment: Cytotoxicity against human CaR-1 cells measured after 8 days; format: functional, cell-based; conditions: CaR-1, 192 h
COLO 201 = experiment: Cytotoxicity against human COLO201 cells measured after 8 days; format: functional, cell-based; conditions: COLO 201, 192 h
[9] = Cytotoxicity against human COLO 206F cells measured after 8 days; format: functional, cell-based; conditions: 192 h
RCM-1 = experiment: Cytotoxicity against human RCM-1 cells measured after 8 days; format: functional, cell-based; conditions: RCM-1, 192 h
[10] = Cytotoxicity against human SW403 cells measured after 8 days; format: functional, cell-based; conditions: SW-403, 192 h
[11] = Cytotoxicity against human 624-mel cells measured after 8 days; format: functional, cell-based; conditions: Homo sapiens, 624, 192 h
C32 = experiment: Cytotoxicity against human C32 cells measured after 8 days; format: functional, cell-based; conditions: C32, 192 h
COLO-829 = experiment: Cytotoxicity against human COLO-829 cells measured after 8 days; format: functional, cell-based; conditions: COLO-829, 192 h
[12] = Cytotoxicity against human COLO 849 cells measured after 8 days; format: functional, cell-based; conditions: COLO 849, 192 h
G-401 = experiment: Cytotoxicity against human G-401 cells measured after 8 days; format: functional, cell-based; conditions: G-401, 192 h
MEL-HO = experiment: Cytotoxicity against human MEL-HO cells measured after 8 days; format: functional, cell-based; conditions: 192 h
RVH-421 = experiment: Cytotoxicity against human RVH-421 cells measured after 8 days; format: functional, cell-based; conditions: RVH-421, 192 h
[13] = Cytotoxicity against human Li-7 cells measured after 8 days; format: functional, cell-based; conditions: Li-7, 192 h
[14] = Cytotoxicity against human KE-97 cells measured after 8 days; format: functional, cell-based; conditions: KE-97, 192 h
NUGC-3 = experiment: Cytotoxicity against human NUGC-3 cells measured after 8 days; format: functional, cell-based; conditions: NUGC-3, 192 h
[15] = Cytotoxicity against human SNU-620 cells measured after 8 days; format: functional, cell-based; conditions: SNU620, 192 h
EPLC-272H = experiment: Cytotoxicity against human EPLC-272H cells measured after 8 days; format: functional, cell-based; conditions: 192 h
CAL-27 = experiment: Cytotoxicity against human CAL-27 cells measured after 8 days; format: functional, cell-based; conditions: CAL-27, 192 h
[16] = Cytotoxicity against human HCC461 cells measured after 8 days; format: functional, cell-based; conditions: HCC461, 192 h
KNS-62 = experiment: Cytotoxicity against human KNS-62 cells measured after 8 days; format: functional, cell-based; conditions: KNS-62, 192 h
[17] = Cytotoxicity against human COLO 685 cells measured after 8 days; format: functional, cell-based; conditions: COLO 685, 192 h
[18] = Cytotoxicity against human HEC-116 cells measured after 8 days; format: functional, cell-based; conditions: HEC-116, 192 h
MES-SA = experiment: Cytotoxicity against human MES-SA cells measured after 8 days; format: functional, cell-based; conditions: 192 h
[19] = target: T1, Bromodomain-containing protein 4 (Homo sapiens, UniProt O60885); experiment: Binding affinity to human partial length BRD4 bromodomain 1 long isoform (N44 to E168 residues) expressed in bacterial expression system by BROMOscan assay
[20] = target: T1, Bromodomain-containing protein 4; experiment: Binding affinity to full length BRD4 short isoform (unknown origin) by BROMOscan assay
Protein polybromo-1 = Protein polybromo-1 (Homo sapiens, UniProt Q86U86); experiment: Binding affinity to human partial length PBRM1 bromodomain 1 (S178 to E291 residues) expressed in bacterial expression system by BROMOscan assay
Protein polybromo-1, sequence (Q86U86 whole entry, the tested form may be a part): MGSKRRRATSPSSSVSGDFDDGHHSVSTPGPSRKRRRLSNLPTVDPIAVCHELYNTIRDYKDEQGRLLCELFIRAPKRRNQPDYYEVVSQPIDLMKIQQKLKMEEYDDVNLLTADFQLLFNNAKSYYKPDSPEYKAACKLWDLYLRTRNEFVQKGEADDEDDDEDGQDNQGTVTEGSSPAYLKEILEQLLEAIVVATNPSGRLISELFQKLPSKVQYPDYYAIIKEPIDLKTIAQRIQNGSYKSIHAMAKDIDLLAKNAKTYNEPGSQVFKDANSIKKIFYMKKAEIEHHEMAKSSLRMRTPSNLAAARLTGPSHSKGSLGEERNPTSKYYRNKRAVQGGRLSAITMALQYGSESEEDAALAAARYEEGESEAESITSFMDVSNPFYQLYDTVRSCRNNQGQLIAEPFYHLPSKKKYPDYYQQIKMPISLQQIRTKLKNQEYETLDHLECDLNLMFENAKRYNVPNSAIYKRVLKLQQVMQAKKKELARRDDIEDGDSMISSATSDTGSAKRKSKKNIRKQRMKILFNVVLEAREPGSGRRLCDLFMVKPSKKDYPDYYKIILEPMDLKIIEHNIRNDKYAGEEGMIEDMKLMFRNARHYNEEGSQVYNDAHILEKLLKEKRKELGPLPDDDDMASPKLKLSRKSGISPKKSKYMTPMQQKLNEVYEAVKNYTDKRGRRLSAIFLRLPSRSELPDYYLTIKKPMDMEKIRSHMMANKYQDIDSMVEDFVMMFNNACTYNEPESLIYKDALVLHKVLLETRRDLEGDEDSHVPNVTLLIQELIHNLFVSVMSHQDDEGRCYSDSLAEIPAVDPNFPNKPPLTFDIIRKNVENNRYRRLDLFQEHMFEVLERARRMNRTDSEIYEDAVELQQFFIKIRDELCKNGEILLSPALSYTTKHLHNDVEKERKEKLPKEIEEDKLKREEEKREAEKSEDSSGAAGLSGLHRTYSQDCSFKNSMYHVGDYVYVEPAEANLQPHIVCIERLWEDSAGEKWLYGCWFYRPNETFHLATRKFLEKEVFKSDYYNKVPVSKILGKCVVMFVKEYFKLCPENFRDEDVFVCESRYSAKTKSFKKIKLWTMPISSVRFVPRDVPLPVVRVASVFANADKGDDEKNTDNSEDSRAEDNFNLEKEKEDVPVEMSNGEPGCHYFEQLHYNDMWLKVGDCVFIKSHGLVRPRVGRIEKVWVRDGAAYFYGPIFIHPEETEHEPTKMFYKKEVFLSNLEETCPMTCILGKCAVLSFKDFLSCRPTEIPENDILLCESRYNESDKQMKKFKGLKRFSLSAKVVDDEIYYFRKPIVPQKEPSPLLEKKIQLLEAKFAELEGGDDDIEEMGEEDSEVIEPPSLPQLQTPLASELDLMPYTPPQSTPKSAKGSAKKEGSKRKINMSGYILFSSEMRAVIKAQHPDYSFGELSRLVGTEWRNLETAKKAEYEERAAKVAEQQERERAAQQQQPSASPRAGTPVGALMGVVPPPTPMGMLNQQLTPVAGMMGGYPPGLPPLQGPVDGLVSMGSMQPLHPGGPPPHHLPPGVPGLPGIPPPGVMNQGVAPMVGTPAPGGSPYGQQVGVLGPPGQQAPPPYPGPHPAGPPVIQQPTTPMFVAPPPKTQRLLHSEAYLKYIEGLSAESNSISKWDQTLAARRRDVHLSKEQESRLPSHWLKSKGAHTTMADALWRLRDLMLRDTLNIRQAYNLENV

[21] = target: T2, Interleukin-1 receptor-associated kinase 4 (Homo sapiens) (UniProt Q9NWZ3); experiment: Inhibition of IRAK4 (unknown origin) at 1 uM relative to control
T2 sequence (whole entry): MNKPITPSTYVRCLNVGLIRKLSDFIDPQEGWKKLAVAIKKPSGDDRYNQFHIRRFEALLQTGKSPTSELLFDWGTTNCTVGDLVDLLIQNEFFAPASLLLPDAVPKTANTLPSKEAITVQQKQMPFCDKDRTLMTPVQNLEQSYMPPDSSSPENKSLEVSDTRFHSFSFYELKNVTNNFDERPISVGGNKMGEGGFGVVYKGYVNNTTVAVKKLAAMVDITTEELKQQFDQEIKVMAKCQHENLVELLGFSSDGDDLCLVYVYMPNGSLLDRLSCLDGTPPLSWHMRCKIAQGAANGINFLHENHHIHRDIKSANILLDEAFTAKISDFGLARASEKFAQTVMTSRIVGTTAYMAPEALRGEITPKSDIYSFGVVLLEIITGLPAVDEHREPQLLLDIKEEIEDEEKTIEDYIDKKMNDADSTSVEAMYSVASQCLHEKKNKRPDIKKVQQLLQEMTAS

[22] = target: Proto-oncogene tyrosine-protein kinase receptor Ret (Homo sapiens) (UniProt P07949); experiment: Inhibition of Ret (unknown origin) at 1 uM relative to control
Proto-oncogene tyrosine-protein kinase receptor Ret (Homo sapiens), sequence (P07949 whole entry): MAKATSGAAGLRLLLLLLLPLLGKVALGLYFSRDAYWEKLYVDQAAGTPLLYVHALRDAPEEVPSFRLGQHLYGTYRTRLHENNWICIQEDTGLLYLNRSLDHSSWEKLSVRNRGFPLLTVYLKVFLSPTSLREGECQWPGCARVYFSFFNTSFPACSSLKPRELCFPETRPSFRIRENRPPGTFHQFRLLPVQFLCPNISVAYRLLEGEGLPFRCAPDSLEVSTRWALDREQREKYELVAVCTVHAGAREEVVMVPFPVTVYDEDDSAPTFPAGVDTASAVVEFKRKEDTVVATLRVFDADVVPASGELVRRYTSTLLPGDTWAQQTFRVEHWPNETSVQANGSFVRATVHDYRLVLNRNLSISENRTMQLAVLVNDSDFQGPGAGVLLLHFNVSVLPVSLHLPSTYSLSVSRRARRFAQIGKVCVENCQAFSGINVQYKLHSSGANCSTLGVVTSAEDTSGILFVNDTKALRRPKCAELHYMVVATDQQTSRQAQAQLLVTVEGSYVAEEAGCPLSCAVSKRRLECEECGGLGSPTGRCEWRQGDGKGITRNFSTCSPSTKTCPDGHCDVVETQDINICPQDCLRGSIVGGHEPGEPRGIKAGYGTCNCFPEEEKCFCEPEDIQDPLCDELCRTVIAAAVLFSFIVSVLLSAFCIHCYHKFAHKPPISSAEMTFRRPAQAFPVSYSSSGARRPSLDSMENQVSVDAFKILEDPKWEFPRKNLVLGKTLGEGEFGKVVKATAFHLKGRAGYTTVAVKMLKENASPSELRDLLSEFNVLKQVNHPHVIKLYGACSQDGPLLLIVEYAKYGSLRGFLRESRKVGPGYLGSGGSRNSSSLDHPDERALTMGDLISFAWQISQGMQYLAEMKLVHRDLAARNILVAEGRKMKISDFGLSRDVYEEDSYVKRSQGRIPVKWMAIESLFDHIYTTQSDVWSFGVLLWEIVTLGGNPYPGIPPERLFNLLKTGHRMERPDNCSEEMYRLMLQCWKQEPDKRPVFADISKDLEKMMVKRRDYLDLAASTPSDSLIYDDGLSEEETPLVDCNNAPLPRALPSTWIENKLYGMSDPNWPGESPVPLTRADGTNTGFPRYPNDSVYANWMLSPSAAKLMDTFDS

[23] = target: Muscarinic acetylcholine receptor M3 (Homo sapiens) (UniProt P20309); experiment: Displacement of [3H]4-DAMP from human recombinant M3 receptor at 10 uM after 60 mins by scintillation counting analysis relative to control
Muscarinic acetylcholine receptor M3 (Homo sapiens), sequence (P20309 whole entry, looked up): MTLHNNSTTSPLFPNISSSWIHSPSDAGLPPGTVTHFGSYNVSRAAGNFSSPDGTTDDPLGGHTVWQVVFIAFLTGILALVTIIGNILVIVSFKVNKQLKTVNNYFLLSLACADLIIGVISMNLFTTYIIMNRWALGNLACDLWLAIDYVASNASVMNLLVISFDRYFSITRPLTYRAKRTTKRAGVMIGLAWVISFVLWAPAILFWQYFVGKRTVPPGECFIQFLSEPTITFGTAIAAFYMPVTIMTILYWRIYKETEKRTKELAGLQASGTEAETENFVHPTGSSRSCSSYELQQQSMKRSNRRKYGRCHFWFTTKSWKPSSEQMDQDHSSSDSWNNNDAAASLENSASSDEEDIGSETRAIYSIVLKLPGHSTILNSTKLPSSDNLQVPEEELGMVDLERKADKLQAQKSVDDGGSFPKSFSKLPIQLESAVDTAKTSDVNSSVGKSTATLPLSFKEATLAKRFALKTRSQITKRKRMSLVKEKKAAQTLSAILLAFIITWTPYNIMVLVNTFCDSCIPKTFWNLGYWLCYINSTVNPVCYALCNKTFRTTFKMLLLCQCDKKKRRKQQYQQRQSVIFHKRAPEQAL

Homo sapiens = species on record: Homo sapiens; experiment: Inhibition of human N muscle type receptor at 10 uM relative to control
[24] = target: 5-hydroxytryptamine receptor 4 (Homo sapiens) (UniProt Q13639); experiment: Inhibition of human 5HT4e at 10 uM relative to control
5-hydroxytryptamine receptor 4 (Homo sapiens), sequence (Q13639 whole entry): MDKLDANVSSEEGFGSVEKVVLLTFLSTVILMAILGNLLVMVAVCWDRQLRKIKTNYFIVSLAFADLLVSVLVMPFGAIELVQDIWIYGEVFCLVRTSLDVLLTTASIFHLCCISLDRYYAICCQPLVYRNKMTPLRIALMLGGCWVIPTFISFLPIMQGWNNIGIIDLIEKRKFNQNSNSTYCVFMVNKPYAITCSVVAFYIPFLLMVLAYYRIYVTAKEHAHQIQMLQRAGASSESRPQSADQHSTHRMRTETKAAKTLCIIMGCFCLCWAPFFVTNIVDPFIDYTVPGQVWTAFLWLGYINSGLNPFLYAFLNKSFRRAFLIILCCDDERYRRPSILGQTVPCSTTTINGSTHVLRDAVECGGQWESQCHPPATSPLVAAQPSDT

C/C=C/Cn1cc(-c2ccc(C(C)(C)O)cc2OC)c2cc[nH]c2c1=O
IC50 [1]: 20 µM | IC50 (KMS-11): 9.13 µM | IC50 (NCI-H1155): 20 µM | IC50 [2]: 20 µM | IC50 [3]: 20 µM | IC50 (NCI-H520): 20 µM | IC50 (CHP-212): 20 µM | IC50 [4]: 20 µM | IC50 [5]: 20 µM | IC50 [6]: 20 µM | IC50 (HCC1187): 20 µM | IC50 (OVCAR-8): 20 µM | IC50 (SUM149PT): 20 µM | IC50 (TYK-nu): 20 µM | IC50 [7]: 20 µM | IC50 (MIA PaCa-2): 20 µM | IC50 [8]: 20 µM | IC50 (CaR-1): 20 µM | IC50 (COLO 201): 20 µM | IC50 [9]: 20 µM | IC50 (RCM-1): 20 µM | IC50 [10]: 20 µM | IC50 [11]: 20 µM | IC50 (C32): 20 µM | IC50 (COLO-829): 20 µM | IC50 [12]: 20 µM | IC50 (G-401): 20 µM | IC50 (MEL-HO): 16.5 µM | IC50 (RVH-421): 20 µM | IC50 [13]: 20 µM | IC50 [14]: 20 µM | IC50 (NUGC-3): 20 µM | IC50 [15]: 20 µM | IC50 (EPLC-272H): 20 µM | IC50 (CAL-27): 20 µM | IC50 [16]: 20 µM | IC50 (KNS-62): 14.7 µM | IC50 [17]: 20 µM | IC50 [18]: 20 µM | IC50 (MES-SA): 7.08 µM | Kd [19]: 1600 nM | Kd [20]: 580 nM | Kd (Protein polybromo-1): 7.6 µM | inhibition [21]: 6% | inhibition [22]: 2% | Activity [23]: 6% | inhibition (Homo sapiens): -7% | inhibition [24]: -1%

C/C=C/Cn1cc(-c2cc(OC)c(C(C)(C)O)cc2OC)c2cc(C)[nH]c2c1=O
Kd [19]: 9400 nM | Kd [20]: > 10000 nM | Kd (Protein polybromo-1): > 10 µM

C/C=C/Cn1cc(-c2ccc(C(=O)N3CCOCC3)cc2)c2cc[nH]c2c1=O
IC50 [1]: 15.3 µM | IC50 (KMS-11): 12.4 µM | IC50 (NCI-H1155): 20 µM | IC50 [2]: 20 µM | IC50 [3]: 20 µM | IC50 (NCI-H520): 20 µM | IC50 (CHP-212): 18.6 µM | IC50 [4]: 20 µM | IC50 [5]: 20 µM | IC50 [6]: 20 µM | IC50 (HCC1187): 20 µM | IC50 (OVCAR-8): 20 µM | IC50 (SUM149PT): 20 µM | IC50 (TYK-nu): 20 µM | IC50 [7]: 20 µM | IC50 (MIA PaCa-2): 20 µM | IC50 [8]: 20 µM | IC50 (CaR-1): 20 µM | IC50 (COLO 201): 20 µM | IC50 [9]: 20 µM | IC50 (RCM-1): 20 µM | IC50 [10]: 20 µM | IC50 [11]: 20 µM | IC50 (C32): 20 µM | IC50 (COLO-829): 20 µM | IC50 [12]: 20 µM | IC50 (G-401): 20 µM | IC50 (MEL-HO): 20 µM | IC50 (RVH-421): 20 µM | IC50 [13]: 20 µM | IC50 [14]: 20 µM | IC50 (NUGC-3): 20 µM | IC50 [15]: 20 µM | IC50 (EPLC-272H): 20 µM | IC50 (CAL-27): 20 µM | IC50 [16]: 20 µM | IC50 (KNS-62): 20 µM | IC50 [17]: 20 µM | IC50 [18]: 20 µM | IC50 (MES-SA): 20 µM | Kd [19]: 1700 nM | Kd [20]: 1200 nM | Kd (Protein polybromo-1): > 10 µM | inhibition [21]: -4.9% | inhibition [22]: -0.9% | Activity [23]: -13% | inhibition (Homo sapiens): -1% | inhibition [24]: 2%

C/C=C/Cn1cc(-c2cc(OC)c(C(=O)N3CCOCC3)cc2OC)c2cc(C)[nH]c2c1=O
IC50 (NCI-H1155): 2 µM | IC50 [3]: 2 µM | IC50 (NCI-H520): 2 µM | IC50 [9]: 2 µM | IC50 (MEL-HO): 2 µM | IC50 [14]: 2 µM | IC50 (EPLC-272H): 2 µM | IC50 [16]: 2 µM | IC50 (KNS-62): 2 µM | Kd [19]: > 10000 nM | Kd [20]: > 10000 nM | Kd (Protein polybromo-1): > 10 µM | inhibition [21]: -3.5% | inhibition [22]: 3% | Activity [23]: 3% | inhibition [24]: -8%
